Assay results reported in US20230063321A1, “Methods for Treating Inflammatory Bowel Diseases with alpha4beta7 Integrin Antagonists” (Protagonist Therapeutics, Inc., priority 2020, published 2023).
Numbered stars: 1 amine (or outer) side, 2 acyl side, 3 side chain; on linkers, the order of the positions; unused ones are H or OH. Bridge positions count the residues as written; N and C are the ends. Square brackets hold non-standard residues; d marks the D form. Peptide text beside a SMILES is read from it. I, II: the chains in the order shown. ξ: configuration not given here. Phe(4-tBu) = CC(C)(C)c1ccc(C[C@H](N)C(=O)O)cc1; Diglycolyl = O=C(COCC(=O)[*:2])[*:1]; NMeR = CN[C@@H](CCCNC(=N)N)C(=O)O; β3hE = N[C@@H](CCC(=O)O)CC(=O)O; Thr(3ξ) = CC(O)[C@H](N)C(=O)O; Pen = CC(C)(S)[C@H](N)C(=O)O

Legend:
α4β7 integrin = biological target: T1, α4β7 integrin (Homo sapiens, UniProt P13612+P26010); experiment: Inhibition of MAdCAM1-mediated CD4+ T cell proliferation (plate bound anti-CD3 + MAdCAM1); format: cell-based; conditions: Compound A 1 uM, inactive analog 1 uM, vedolizumab 500 ng/mL; three days
T1 construct: endogenous in cells; host or cells: primary human CD4+ T cells enriched from PBMCs of healthy donors
Method: PBMCs were purified from healthy human donors and enrichment of CD4+ T cells was performed. […] Phenotype, distribution of T-helper (Th) subsets and % RO analyses were conducted by flow cytometry of freshly stained live samples.

α4β7 [1] = biological target: T2, α4β7 (Mus musculus, UniProt P26011+Q00651); experiment: α4β7 receptor occupancy in whole blood and Peyer's patches after oral dosing; format: in vivo, C57BL/6 mice
T2 construct: mice were euthanized and whole blood/plasma and Peyer's patches were collected; from tissue; host or cells: whole blood and Peyer's patches of C57BL/6 mice
Method: One hour following dosing, mice were euthanized and whole blood/plasma and Peyer's patches were collected. Peyer's patches were dispersed in 1 mL RPMI medium with 2% FBS without washing step. Whole blood and single cell suspension of Peyer's patches (100 uL out of 1 mL total) were submitted for flow cytometry to determine α4β7 receptor occupancy. % RO=(1−(% positive test sample/% positive median vehicle control))*100. Plasma and Peyer's patches dispersed in single cell suspension (500 uL of 1 mL total) were also analyzed for drug exposure.

α4β7 [2] = biological target: T3, α4β7 (Homo sapiens, UniProt P13612+P26010); experiment: α4β7 internalization / surface expression by flow cytometry; format: cell-based; conditions: human PBMCs, 100 nM, 24 h
T3 construct: endogenous in cells
Source text: Blood samples from human donors were obtained from the Stanford Blood Center (Stanford, Calif.) under an RB-approved research protocol. Blood was drawn into BD Vacutainer sodium heparin blood collection tubes (BD Biosciences, Cat #362753). Peripheral blood mononuclear cells (PBMCs) were isolated from blood using a SepMate-50 tube and LymphoPrep per the manufacturer's protocol. CD4^+ T memory cells were enriched after PBMC isolation, using an EasySep kit (StemCell Technologies) per the manufacturer's protocol.
After incubation, an aliquot of cells from each reaction was stained for α4β7 expression.
After incubation, cells were washed extensively to remove excess peptide. For each reaction, an aliquot of cells was stained for α4β7 expression, while a separate aliquot was tested for adhesion to MAdCAM1.
An aliquot of cells were collected before and 24 h post peptide addition and stained for α4β7 expression. Afterwards, cells were extensively washed to remove excess peptide and incubated in fresh complete culture medium (without MnCl2) for an additional seven days. On day 1, 2, 4, 5, and 7 days after peptide washout, aliquots were stained for α4β7 expression.
Following peptide incubation, an aliquot of each reaction was stained for surface expression of α4β7 in preparation for flow cytometry. Cells were stained at 4° C. for 30 minutes, washed twice in DPBS containing 0.5% BSA (PBS/BSA), incubated with streptavidin BV421 (diluted 1:1000) at 4° C. for 30 minutes, washed twice in PBS/BSA, and then resuspended in PBS/BSA for analysis. Where relevant, a “fluorescence minus one” (FMO) sample was used as the staining control.
Samples were analyzed by flow cytometry on a BD (Franklin Lakes, N.J.) FACSVerse flow cytometer equipped with the following lasers: 405 nm (violet), 488 nm (blue), 561 nm (yellow-green), and 640 nm (red). CD4^+ T memory cells were identified as CD4^+, […], CD197^+ lymphocytes. α4β7 expression within CD4^+ T memory cells was identified based on staining with the Vedolizumab BV421 complex; staining was analyzed using BD FACSuite software, version 1.0.5. Where applicable, values were normalized to no-peptide controls and expressed as percentages to permit assessment of changes in the indicated parameter. Data were plotted and analyzed using Prism software (version 7; GraphPad, La Jolla, Calif.).

[3] = biological target: α4β7 integrin (mouse, on cells of whole blood and Peyer's patches) (mouse) (UniProt Q00651); experiment: flow cytometry α4β7 receptor occupancy in Peyer's patches, mice dosed orally 3 or 30 mg/kg
Sequence of α4β7 integrin (mouse, on cells of whole blood and Peyer's patches) (mouse) (Q00651 41-1039, chain 1 of 2): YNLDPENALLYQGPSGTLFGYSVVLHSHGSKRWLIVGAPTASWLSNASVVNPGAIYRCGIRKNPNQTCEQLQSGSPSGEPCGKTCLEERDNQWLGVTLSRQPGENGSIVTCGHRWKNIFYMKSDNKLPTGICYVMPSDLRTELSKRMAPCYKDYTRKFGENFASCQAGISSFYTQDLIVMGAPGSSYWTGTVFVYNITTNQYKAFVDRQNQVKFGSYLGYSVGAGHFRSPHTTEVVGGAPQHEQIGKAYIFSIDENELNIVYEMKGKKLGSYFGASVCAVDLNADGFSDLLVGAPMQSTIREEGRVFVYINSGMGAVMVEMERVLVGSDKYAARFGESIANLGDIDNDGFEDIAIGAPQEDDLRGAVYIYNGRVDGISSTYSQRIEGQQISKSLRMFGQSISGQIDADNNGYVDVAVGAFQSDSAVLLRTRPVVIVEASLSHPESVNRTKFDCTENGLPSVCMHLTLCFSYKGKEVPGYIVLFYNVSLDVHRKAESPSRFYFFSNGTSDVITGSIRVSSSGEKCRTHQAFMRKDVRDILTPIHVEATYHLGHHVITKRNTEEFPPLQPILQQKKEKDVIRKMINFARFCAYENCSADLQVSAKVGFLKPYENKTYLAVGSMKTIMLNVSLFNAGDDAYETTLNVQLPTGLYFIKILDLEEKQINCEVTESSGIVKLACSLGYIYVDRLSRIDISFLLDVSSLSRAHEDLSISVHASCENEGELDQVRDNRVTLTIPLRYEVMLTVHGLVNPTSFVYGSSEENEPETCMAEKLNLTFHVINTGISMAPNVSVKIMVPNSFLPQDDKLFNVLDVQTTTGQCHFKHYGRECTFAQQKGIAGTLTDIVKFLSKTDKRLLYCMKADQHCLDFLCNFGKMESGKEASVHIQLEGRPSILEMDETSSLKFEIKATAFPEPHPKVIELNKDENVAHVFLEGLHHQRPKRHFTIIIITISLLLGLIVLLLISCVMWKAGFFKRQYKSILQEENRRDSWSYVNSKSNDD
Sequence of α4β7 integrin (mouse, on cells of whole blood and Peyer's patches) (mouse) (P26011 20-806, chain 2 of 2, further chain): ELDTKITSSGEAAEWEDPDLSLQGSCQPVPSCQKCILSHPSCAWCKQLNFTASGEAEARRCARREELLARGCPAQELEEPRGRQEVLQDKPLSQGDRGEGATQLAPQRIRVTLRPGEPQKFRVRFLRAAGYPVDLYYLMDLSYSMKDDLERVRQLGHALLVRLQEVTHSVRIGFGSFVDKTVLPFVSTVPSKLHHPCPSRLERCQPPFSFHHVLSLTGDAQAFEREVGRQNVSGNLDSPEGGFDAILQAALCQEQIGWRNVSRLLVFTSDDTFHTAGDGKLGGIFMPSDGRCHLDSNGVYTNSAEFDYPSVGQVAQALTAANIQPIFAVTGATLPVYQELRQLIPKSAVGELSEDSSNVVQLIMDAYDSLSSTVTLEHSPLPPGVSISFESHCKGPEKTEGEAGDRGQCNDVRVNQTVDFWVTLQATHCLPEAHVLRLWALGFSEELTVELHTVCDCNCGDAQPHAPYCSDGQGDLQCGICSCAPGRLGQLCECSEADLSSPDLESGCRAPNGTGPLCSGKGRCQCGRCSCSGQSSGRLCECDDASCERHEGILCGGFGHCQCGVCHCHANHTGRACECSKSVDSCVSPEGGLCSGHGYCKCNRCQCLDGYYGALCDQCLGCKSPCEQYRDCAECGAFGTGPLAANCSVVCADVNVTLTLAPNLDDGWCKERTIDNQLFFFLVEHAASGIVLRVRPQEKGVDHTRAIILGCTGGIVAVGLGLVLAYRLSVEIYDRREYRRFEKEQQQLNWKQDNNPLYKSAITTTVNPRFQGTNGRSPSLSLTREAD

T2 sequence (Q00651 41-1039): as the sequence (Q00651 41-1039, chain 1 of 2) above
T2 sequence (P26011 20-806): as the sequence (P26011 20-806, chain 2 of 2, further chain) above

Which “inhibition of MAdCAM1-mediated proliferation of CD4+ T-cells” value (α4β7 integrin) does the source give for “vedolizumab: intravenously administered humanized IgG monoclonal antibody directed against α4β7 [reference compound]” here?
Its value is “level of inhibition was similar to inhibition by vedolizumab”.

Which “receptor occupancy in Peyer's patches” value (α4β7 [1]; 3 and 30 mg/kg PO, 1 h post dose, some animals) does the source give for `CC(=O)N[C@@H]1C(=O)N(C)[C@@H](CCCNC(=N)N)C(=O)N[C@@H](CO)C(=O)N[C@@H](CC(=O)O)C(=O)N[C@@H](C(C)O)C(=O)N[C@@H](CC(C)C)C(=O)N[C@H](C(=O)N[C@@H](Cc2ccc(C(C)(C)C)cc2)C(=O)N[C@@H](CCC(=O)O)CC(=O)N[C@H](CCCCNC(=O)COCC(=O)NCCCC[C@@H](NC(=O)C[C@H](CCC(=O)O)NC(=O)[C@H](Cc2ccc(C(C)(C)C)cc2)NC(=O)[C@H]2NC(=O)[C@H](CC(C)C)NC(=O)[C@H](C(C)O)NC(=O)[C@H](CC(=O)O)NC(=O)[C@H](CO)NC(=O)[C@H](CCCNC(=N)N)N(C)C(=O)[C@@H](NC(C)=O)C(C)(C)SSC2(C)C)C(N)=O)C(N)=O)C(C)(C)SSC1(C)C` (stereo partly drawn) [Compound B, (Ac-Pen-(N-Me-Arg)-Ser-Asp-Thr-Leu-Pen-(Phe(4-tBu))-(β-homo-Glu)-(D-Lys)-NH2)2 (SEQ ID NO. 6) with linker=DIG (diglycolic acid)] (I: Ac-[Pen][NMeR]SD[Thr(3ξ)]L[Pen][Phe(4-tBu)][β3hE][dK]-NH2 / II: Ac-[Pen][NMeR]SD[Thr(3ξ)]L[Pen][Phe(4-tBu)][β3hE][dK]-NH2; disulfide I:1-I:7, II:1-II:7; linker I:10-II:10 via Diglycolyl) here?
Its value is 100%.

What about the “receptor occupancy in whole blood and Peyer's patches, 30 mg/kg vs 3 mg/kg dose group” value (α4β7 [1]; PO) of the same molecule?
Its value is “comparable”.

And the “receptor occupancy in Peyer's patches compared to whole blood” value (α4β7 [1]; both dose groups (3 and 30 mg/kg PO))?
Its value is “significantly higher”.

What about the “internalization of α4β7” value (α4β7 [2]) of the same molecule?
The value was “caused internalization of α4β7”.

B1: Compound B (peptide)
peptide: Ac-[Pen][NMeR]SDTL[Pen][Phe(4-tBu)][β3hE][dK]-NH2
modifications: disulfide 1-7; also: homodimer linked through D-Lys residues by diglycolic acid (DIG)
B1 was tested. Which receptor occupancy (%) [3] did it give?
Its receptor occupancy (%) is 100%.
